Measured values as given in patent US8946280B2, “Plant growth regulating compounds” (Syngenta Participations AG, priority 2010, dated 2015).

Tests used:
[1] = tested on: Orobanche cumana Wallr. seeds (race F; seed lots IN146 and IN153); assay: Germination of preconditioned Orobanche cumana seeds on glass fiber filter paper in petri dishes; format: in vivo; conditions: mean, N = 5 × 100 seeds, re-transformed data; for Germination (%): seed lot IN146 raceF, examined 10 days later
Procedure: The effect of compounds of formula (I) on germination of Orobanche cumana Wallr. seeds was evaluated on glass fiber filter paper (GFFP) in petri dishes. Seeds were preconditioned at moisture and suitable temperature to become responsive to the specific chemical germination stimulants.
Test compounds were dissolved in DMSO (10 000 mg 1^−1) and stored at room temperature in a desiccators with desiccants. The stock solutions were dissolved with deionised water to the appropriate final test concentration.
Seeds of O. cumana race ‘F’ were collected from sunflower fields in Manzanilla (Seville, Spain) in 2006 (seed lot IN146) and 2008 (seed lot IN153) and stored at room temperature. To separate seeds from heavy organic debris, a modified sucrose floatation technique as described by Hartman & Tanimonure (Plant Disease (1991), 75, p. 494) was applied. Seeds were filled into a separation funnel and stirred in water. When seeds floated to the surface, the water fraction containing heavy debris was discarded. Seeds were re-suspended in 2.5M sucrose solution (specific gravity of 1.20) and heavy debris was allowed to settle down for 60 min. After removing debris, seeds were disinfected in 1% sodium hypochlorite solution and 0.025% (v/v) Tween 20 for 2 min. The seeds were decanted onto two layers of cheesecloth, rinsed with sterile deionised water and re-suspended in sterile deionised water. Two ml of the seed suspension containing approximately 150-400 seeds were spread evenly on two layers of sterile glass fiber filter paper disc ([…]) in Petri dishes (Ø9 cm). After wetting the discs with 3 ml sterile deionised water, petri dishes were sealed with parafilm. Seeds were incubated for 10 days at 20° C. in the dark for seed conditioning. The upper disc with conditioned seeds was briefly dried, transferred to a petri dish lined with a dry GFFP disc, and wetted with 6 ml of the appropriate test solution. The compounds of formula (I) were tested at concentrations of 0.001, 0.01, and 0.1 mg 1^−1. The strigolactone analogue GR24 (commercially available as a mixture of isomers) was included as positive control and 0.001% DMSO as negative control. All treatments were tested in five replicates. Seeds were re-incubated at 20° C. in the dark and examined for germination 10 days later. The radicles of germinated seeds were stained for 5 min with blue ink (MIGROS, Switzerland) in 5% acetic acid according to Long et al. (Seed Science Research (2008), 18, p. 125). After staining, seeds were scanned using a flatbed scanner with an optical resolution of 1200 dpi (PULSTEK, OpticPro ST28) or photographed using a camera stand mounted with a digital SLR camera (Canon EOS 5D). Germination of 100 seeds per replicate was evaluated on digital images. Seeds were considered germinated when the radicle protruded from the seed coat. SAS statistical software package version 9.1 was used for analysis of variance (GLM procedure) and multiple comparisons of treatment means (Sidak t-test) based on arcsine transformed percentage germination data.

[2] = Table 7, seed lot IN153, race F, 0.001 mg l^−1
[3] = Table 7, seed lot IN153, race F, 0.01 mg l^−1
[4] = Table 7, seed lot IN153, race F, 0.1 mg l^−1
[5] = Table 8, seed lot IN153, race F, 0.001 mg l^−1
[6] = Table 8, seed lot IN153, race F, 0.01 mg l^−1
[7] = Table 8, seed lot IN153, race F, 0.1 mg l^−1

CC1=CC(O/C=C2/C(=O)N(C)C3c4ccccc4C[C@H]23)OC1=O (stereo in doubt) [Compound P3, 1-Methyl-(3aR*,8bS*,5′R*)-3-[1-(4-Methyl-5-oxo-2,5-dihydro-furan-2-yloxy)-meth-(E)-ylidene]-3,3a,4,8b-tetrahydro-1H-indeno[1,2-b]pyrrol-2-one]
Germination (%) ([1]; 0.001 mg l^−1): 68% | Germination (%) ([1]; 0.01 mg l^−1): 82.4% | Germination (%) ([1]; 0.1 mg l^−1): 84% | melting point: 130 to 135 °C

CC1=CC(OC=C2C(=O)N(c3ccc(Cl)cc3)C3c4ccccc4CC23)OC1=O (stereo not shown) [Compound A18]
Germination % at concentration of 0.001 mg l^−1 [1, 2]: 89.8 ab % | Germination % at concentration of 0.01 mg l^−1 [1, 3]: 99.1 a % | Germination % at concentration of 0.1 mg l^−1 [1, 4]: 99.1 a %

COc1ccc(N2C(=O)C(=COC3C=C(C)C(=O)O3)C3Cc4ccccc4C32)cc1 (stereo not shown) [Compound A20]
Germination % at concentration of 0.001 mg l^−1 [1, 2]: 2.0 c % | Germination % at concentration of 0.01 mg l^−1 [1, 3]: 14.4 c % | Germination % at concentration of 0.1 mg l^−1 [1, 4]: 89.3 ab %

CCOC(=O)N1C(=O)C(=COC2C=C(C)C(=O)O2)C2Cc3ccccc3C21 (stereo not shown) [Compound A21]
Germination % at concentration of 0.001 mg l^−1 [1, 5]: 83.7 abcde % | Germination % at concentration of 0.01 mg l^−1 [1, 6]: 93.4 abc % | Germination % at concentration of 0.1 mg l^−1 [1, 7]: 96.7 a %

CC(=O)N1C(=O)C(=COC2C=C(C)C(=O)O2)C2Cc3ccccc3C21 (stereo not shown) [Compound A22]
Germination % at concentration of 0.001 mg l^−1 [1, 5]: 87.6 abc % | Germination % at concentration of 0.01 mg l^−1 [1, 6]: 95.3 ab % | Germination % at concentration of 0.1 mg l^−1 [1, 7]: 95.7 ab %

CC1=CC(OC=C2C(=O)N(c3nccs3)C3c4ccccc4CC23)OC1=O (stereo not shown) [Compound A26]
Germination % at concentration of 0.001 mg l^−1 [1, 5]: 93.9 abc % | Germination % at concentration of 0.01 mg l^−1 [1, 6]: 95.4 ab % | Germination % at concentration of 0.1 mg l^−1 [1, 7]: 93.9 abc %

CC1=C[C@H](O/C=C2/C(=O)O[C@@H]3c4ccccc4C[C@H]23)OC1=O [GR24, reference compound]
Germination (%) ([1]; 0.001 mg l^−1): 25.9% | Germination (%) ([1]; 0.01 mg l^−1): 44.9% | Germination (%) ([1]; 0.1 mg l^−1): 59.8%

GR-24
Germination % at concentration of 0.001 mg l^−1 ([1]; Table 5, seed lot IN146, race F, 0.001 mg l^−1): 21.2 de % | Germination % at concentration of 0.01 mg l^−1 ([1]; Table 5, seed lot IN146, race F, 0.01 mg l^−1): 33.3 cd % | Germination % at concentration of 0.1 mg l^−1 ([1]; Table 5, seed lot IN146, race F, 0.1 mg l^−1): 45.9 bcd % | Germination % at concentration of 0.001 mg l^−1 ([1]; Table 6, seed lot IN146, race F, 0.001 mg l^−1): 17.5 d % | Germination % at concentration of 0.01 mg l^−1 ([1]; Table 6, seed lot IN146, race F, 0.01 mg l^−1): 61.4 c % | Germination % at concentration of 0.1 mg l^−1 ([1]; Table 6, seed lot IN146, race F, 0.1 mg l^−1): 86.6 ab % | Germination % at concentration of 0.001 mg l^−1 [1, 2]: 89.5 ab % | Germination % at concentration of 0.01 mg l^−1 [1, 3]: 97.2 a % | Germination % at concentration of 0.1 mg l^−1 [1, 4]: 96.2 ab % | Germination % at concentration of 0.001 mg l^−1 [1, 5]: 84.1 abcde % | Germination % at concentration of 0.01 mg l^−1 [1, 6]: 94.1 abc % | Germination % at concentration of 0.1 mg l^−1 [1, 7]: 97.0 a %
